Laboratory results: ChEMBL document CHEMBL3044642, “Antimycobacterial activity of fractions and isolated compounds from Vetiveria zizanioides” (2012)
Values after ≈ are worked out from the molar mass of the structure shown.

Key:
Format in all cases: functional
[1] = tested on: Mycolicibacterium smegmatis; test: Antimycobacterial activity against lomofloxacin-resistant Mycobacterium smegmatis Lom R5 after 24 hr by two-fold serial micro broth dilution method; details: Lom R5, 24 h
[2] = tested on: Mycolicibacterium smegmatis; test: Antimycobacterial activity against ciprofloxacin,lomofloxacin and norflaxacin-resistant Mycobacterium smegmatis CSC-101 after 24 hr by two-fold serial micro broth dilution method; details: CSC-101, 24 h
[3] = tested on: Mycolicibacterium smegmatis; test: Antimycobacterial activity against Mycobacterium smegmatis str. MC2 155 after 24 hr by two-fold serial micro broth dilution method; details: str. MC2 155, 24 h
[4] = tested on: Mycolicibacterium smegmatis; test: Antimycobacterial activity against rifampicin,amphiciline and kanamycin-resistant Mycobacterium smegmatis MDR-40 after 24 hr by two-fold serial micro broth dilution method; details: MDR-40, 24 h
[5] = tested on: Mycolicibacterium smegmatis; test: Antimycobacterial activity against rifampicin,tetracycline and chloramphenicol-resistant Mycobacterium smegmatis MDR-R after 24 hr by two-fold serial micro broth dilution method
[6] = tested on: Mycolicibacterium smegmatis; test: Antimycobacterial activity against quinolones and ciprofloxacin-resistant Mycobacterium smegmatis MDRQ after 24 hr by two-fold serial micro broth dilution method

Structure (SMILES) | MIC [1] | MIC [2] | MIC [3] | MIC [4] | MIC [5] | MIC [6]
CC1(C)CCC[C@@]2(C)C(CO)[C@H]3CC[C@H]2C3C1 (stereo not given in full) [HYDROXY JUNEPENE] | > 250 µg/mL | 125 µg/mL (≈ 529 µM) | 62.5 µg/mL (≈ 264 µM) | 31.2 µg/mL (≈ 132 µM) | 62.5 µg/mL (≈ 264 µM) | > 250 µg/mL
CCn1cc(C(=O)O)c(=O)c2ccc(C)nc21 [NALIDIXIC ACID] | 25 µg/mL (≈ 108 µM) | 6.25 µg/mL (≈ 26.9 µM) | 0.78 µg/mL (≈ 3.36 µM) | 50 µg/mL (≈ 215 µM) | 50 µg/mL (≈ 215 µM) | 50 µg/mL (≈ 215 µM)
CCCCC#CCCCC#CCCCCO | > 250 µg/mL | 62.5 µg/mL (≈ 284 µM) | 125 µg/mL (≈ 567 µM) | 31.2 µg/mL (≈ 142 µM) | 31.2 µg/mL (≈ 142 µM) | 250 µg/mL (≈ 1130 µM)
CCn1cc(C(=O)O)c(=O)c2cc(F)c(N3CCNC(C)C3)c(F)c21 (stereo not given) [LOMEFLOXACIN] | > 50 µg/mL | < 1 µg/mL | 0.78 µg/mL (≈ 2.22 µM) | 2.5 µg/mL (≈ 7.12 µM) | 10 µg/mL (≈ 28.5 µM) | > 50 µg/mL
O=C(O)c1cn(C2CC2)c2cc(N3CCNCC3)c(F)cc2c1=O [CIPROFLOXACIN] | 25 µg/mL (≈ 75.4 µM) | 3.12 µg/mL (≈ 9.43 µM) | 0.78 µg/mL (≈ 2.35 µM) | > 25 µg/mL | 3.12 µg/mL (≈ 9.43 µM) | 25 µg/mL (≈ 75.4 µM)
